In ChEMBL document CHEMBL3045026, “Cytotoxic clerodane diterpenes from Glossocarya calcicola” (Phytochemistry, 2005):
≈ marks a conversion by molar mass, not a printed value.

How the values were obtained:
[1] = Cytotoxicity against Drosophila melanogaster D.mel-2 cells; assay type: functional, cell-based
HepG2 = experiment: Cytotoxicity against Homo sapiens (human) HepG2 cells; assay type: functional, cell-based

Structure (SMILES)	IC50 [1]	IC50 (HepG2)
C=C1CC[C@@H](OC(=O)C(C)CC)[C@H]2[C@@]1(C)[C@@H](O)C(=O)C(=C)[C@]2(C)C[C@@H](OC(=O)/C(C)=C/C)[C@]1(O)COC(=O)C1 (relative stereo)	8.3 µg/mL (≈ 15.2 µM)	2.1 µg/mL (≈ 3.84 µM)
C=C1CC[C@@H](OC(=O)C(C)C)[C@H]2[C@@]1(C)[C@@H](O)C(=O)C(=C)[C@]2(C)C[C@@H](OC(=O)/C(C)=C/C)[C@]1(O)COC(=O)C1 (relative stereo)	9.04 µg/mL (≈ 17 µM)	2.06 µg/mL (≈ 3.87 µM)
